# Data published in patent publication US11149037B2, “Pyrazole MAGL inhibitors” (H. Lundbeck A/S, priority 2017, dated 2021).
# Experiments:
# Assay type in all cases: biochemical
# [1] = target: MAGL (Mus musculus (Mouse), UniProt O35678); test: In vitro competitive activity-based protein profiling, mouse proteomes (brain membrane fraction or cell lysates); conditions: mouse proteome, read-out: MAGL % inh. 1 μM (mouse)
# Method in brief: (§1)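 Activity of MAGL and FAAH was quantified from fluorescent gel band intensities. Beforehand, inhibitors at several concentrations competed against subsequent probe labelling (FP-Rh, JW912 or HT-01) in species-matched proteomes, each step 30 min at 37° C.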
# [2] = target: FAAH (Mus musculus (Mouse), UniProt O08914); test: as above; conditions: mouse proteome, read-out: FAAH % inh. 1 μM (mouse)
# Sequence of FAAH (Mus musculus (Mouse), UniProt O08914) (O08914 whole entry): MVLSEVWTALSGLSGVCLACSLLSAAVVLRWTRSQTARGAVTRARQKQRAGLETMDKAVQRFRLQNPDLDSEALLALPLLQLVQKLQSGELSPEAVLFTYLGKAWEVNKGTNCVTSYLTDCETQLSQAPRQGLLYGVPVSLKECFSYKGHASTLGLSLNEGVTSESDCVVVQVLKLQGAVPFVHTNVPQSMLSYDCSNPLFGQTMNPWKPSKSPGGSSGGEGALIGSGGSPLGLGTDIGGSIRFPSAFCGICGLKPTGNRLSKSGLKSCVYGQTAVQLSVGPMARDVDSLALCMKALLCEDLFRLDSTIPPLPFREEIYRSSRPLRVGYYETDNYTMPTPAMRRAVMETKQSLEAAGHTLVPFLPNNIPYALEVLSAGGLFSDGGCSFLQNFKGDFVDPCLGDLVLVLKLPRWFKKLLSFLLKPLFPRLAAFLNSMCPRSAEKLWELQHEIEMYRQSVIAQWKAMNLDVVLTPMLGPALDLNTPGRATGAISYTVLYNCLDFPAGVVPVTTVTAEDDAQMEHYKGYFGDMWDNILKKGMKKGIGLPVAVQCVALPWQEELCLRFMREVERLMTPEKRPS
# Method in brief: as §1
# [3] = target: MAGL (Homo sapiens (Human), UniProt Q99685); test: In vitro competitive activity-based protein profiling, human proteomes (prefrontal cortex or PC3 cell membrane fractions); conditions: human proteome; for inhibition at 1 µM: read-out: MAGL % inh. 1 μM (human)
# Sequence of MAGL (Homo sapiens (Human), UniProt Q99685) (Q99685 whole entry): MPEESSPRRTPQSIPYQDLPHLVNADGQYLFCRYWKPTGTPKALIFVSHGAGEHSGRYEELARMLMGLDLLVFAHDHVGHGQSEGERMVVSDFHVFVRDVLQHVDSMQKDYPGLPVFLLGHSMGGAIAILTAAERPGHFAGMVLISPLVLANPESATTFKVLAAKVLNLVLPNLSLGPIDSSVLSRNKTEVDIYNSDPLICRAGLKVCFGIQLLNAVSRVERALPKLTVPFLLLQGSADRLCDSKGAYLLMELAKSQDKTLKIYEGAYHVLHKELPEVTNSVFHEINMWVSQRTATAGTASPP
# Method in brief: as §1
# [4] = target: FAAH (Homo sapiens (Human), UniProt O00519); test: as above; conditions: human proteome; for inhibition at 1 µM: read-out: FAAH % inh. 1 μM (human)
# Sequence of FAAH (Homo sapiens (Human), UniProt O00519) (O00519 whole entry): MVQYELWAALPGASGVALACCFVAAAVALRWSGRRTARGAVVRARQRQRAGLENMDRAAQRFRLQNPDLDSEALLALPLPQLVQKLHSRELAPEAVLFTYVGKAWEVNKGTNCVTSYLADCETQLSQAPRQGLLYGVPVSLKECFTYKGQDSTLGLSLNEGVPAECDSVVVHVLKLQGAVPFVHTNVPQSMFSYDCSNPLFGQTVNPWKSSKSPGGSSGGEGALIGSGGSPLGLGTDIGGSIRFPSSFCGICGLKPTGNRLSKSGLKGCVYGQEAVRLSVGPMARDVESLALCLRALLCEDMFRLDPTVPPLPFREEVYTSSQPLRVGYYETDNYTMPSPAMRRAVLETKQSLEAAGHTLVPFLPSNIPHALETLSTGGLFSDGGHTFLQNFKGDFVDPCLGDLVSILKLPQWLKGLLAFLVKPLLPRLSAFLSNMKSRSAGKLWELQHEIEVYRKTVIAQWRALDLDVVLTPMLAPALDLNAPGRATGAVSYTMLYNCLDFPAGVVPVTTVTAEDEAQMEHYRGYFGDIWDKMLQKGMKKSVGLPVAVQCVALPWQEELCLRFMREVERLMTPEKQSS
# Method in brief: as §1
# Sequence of MAGL (Mus musculus (Mouse), UniProt O35678) (O35678 whole entry): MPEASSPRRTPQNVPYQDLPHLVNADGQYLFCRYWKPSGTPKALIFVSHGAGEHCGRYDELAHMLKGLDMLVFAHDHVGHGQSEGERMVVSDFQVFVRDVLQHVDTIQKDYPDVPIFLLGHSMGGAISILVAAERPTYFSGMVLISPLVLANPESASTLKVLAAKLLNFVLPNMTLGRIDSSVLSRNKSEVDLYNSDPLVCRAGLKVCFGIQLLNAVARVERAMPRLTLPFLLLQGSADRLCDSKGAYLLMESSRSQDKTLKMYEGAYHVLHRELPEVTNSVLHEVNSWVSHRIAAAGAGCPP
Structure (SMILES),inhibition at 1 µM [1] [%],inhibition at 1 µM [2] [%],inhibition at 1 µM [3] [%],inhibition at 1 µM [4] [%],"inhibition at 50 µM ([3]; 50 μM, read-out: MAGL % inh. (human) @ 50 μM) [%]",IC50 [3] [µM],IC50 [4] [µM],"inhibition at 10 µM ([3]; 10 μM, read-out: MAGL % inh. (human) @ 10 μM) [%]"
"CS(=O)(=O)Nc1ccn(C(=O)N2CCC3(CCN(Cc4ccc(C(F)(F)F)cc4N4CCC(F)CC4)CC3)C2)n1 [Example 60, N-(1-(8-(2-(4-Fluoropiperidin-1-yl)-4-(trifluoromethyl)benzyl)-2,8-diazaspiro[4.5]decane-2-carbonyl)-1H-pyrazol-3-yl)methanesulfonamide]",> 75,0 to 25,> 75,0 to 25,–,–,–,–
"CC(=O)Nc1ccn(C(=O)N2CCN(Cc3cccc(C(F)(F)F)c3C)CC2)n1 [Example 129, N-(1-(4-(2-Methyl-3-(trifluoromethyl)benzyl)piperazine-1-carbonyl)-1H-pyrazol-3-yl)acetamide]",> 75,0 to 25,> 75,0 to 25,–,–,–,–
"CS(=O)(=O)Nc1ccn(C(=O)N2CCN(Cc3ccc(C(F)(F)F)c(N4CC[C@@H](F)C4)c3)CC2)n1 [Example 120, (R)-N-(1-(4-(3-(3-Fluoropyrrolidin-1-yl)-4-(trifluoromethyl)benzyl)piperazine-1-carbonyl)-1H-pyrazol-3-yl)methanesulfonamide]",> 75,0 to 25,> 75,0 to 25,–,–,–,–
"CS(=O)(=O)Nc1ccn(C(=O)N2CCN(Cc3ncccc3N3CCCC3)CC2)n1 [Example 86, N-(1-(4-((3-(Pyrrolidin-1-yl)pyridin-2-yl)methyl)piperazine-1-carbonyl)-1H-pyrazol-3-yl)methanesulfonamide]",25 to 50,0 to 25,25 to 50,0 to 25,–,–,–,–
"C[C@@H]1CN(Cc2ccc(Cl)c(N3CCC(F)CC3)c2)CCN1C(=O)n1ccc(NS(C)(=O)=O)n1 [Example 142, (R)-N-(1-(4-(4-Chloro-3-(4-fluoropiperidin-1-yl)benzyl)-2-methylpiperazine-1-carbonyl)-1H-pyrazol-3-yl)methanesulfonamide]",> 75,0 to 25,> 75,0 to 25,–,–,–,–
"CN(Cc1ccc(C(F)(F)F)cc1N1CCC(C(=O)O)C1)C1(C)CCN(C(=O)n2ccc(NS(C)(=O)=O)n2)CC1 (stereo not shown) [Example 97, 1-(2-((Methyl(4-methyl-1-(3-(methylsulfonamido)-1H-pyrazole-1-carbonyl)piperidin-4-yl)amino)methyl)-5-(trifluoromethyl)phenyl)pyrrolidine-3-carboxylic acid]",25 to 50,0 to 25,25 to 50,0 to 25,–,–,–,–
"CC(=O)Nc1ccn(C(=O)N2CCC3(CCCN3C(=O)c3ccc(Cl)c(C4CC4)c3)CC2)n1 [Example 20, N-(1-(1-(4-chloro-3-cyclopropylbenzoyl)-1,8-diazaspiro[4.5]decane-8-carbonyl)-1H-pyrazol-3-yl)acetamide]",> 75,> 75,> 75,0 to 25,–,< 0.1,1 to 10,–
"CS(=O)(=O)Nc1ccn(C(=O)N2CCC(Oc3ccc(C(F)(F)F)c(OC4CCCC4)c3)CC2)n1 [Example 110, N-(1-(4-(3-(Cyclopentyloxy)-4-(trifluoromethyl)phenoxy)piperidine-1-carbonyl)-1H-pyrazol-3-yl)methanesulfonamide]",> 75,0 to 25,> 75,0 to 25,–,–,–,–
"CS(=O)(=O)Nc1ccn(C(=O)N2CCN(Cc3cccnc3N3CCCC3)CC2)n1 [Example 81, N-(1-(4-((2-(Pyrrolidin-1-yl)pyridin-3-yl)methyl)piperazine-1-carbonyl)-1H-pyrazol-3-yl)methanesulfonamide]",50 to 75,0 to 25,> 75,0 to 25,–,–,–,–
"CS(=O)(=O)Nc1ccn(C(=O)N2CCN(Cc3ccc(Cl)c(N4CCC(F)(F)CC4)c3)CC2)n1 [Example 147, N-(1-(4-(4-Chloro-3-(4,4-difluoropiperidin-1-yl)benzyl)piperazine-1-carbonyl)-1H-pyrazol-3-yl)methanesulfonamide]",> 75,0 to 25,> 75,0 to 25,–,–,–,–
"CS(=O)(=O)Nc1ccn(C(=O)N2CCC3(CCN(Cc4cc(Cl)cc(N5CCCC5)c4)C3)CC2)n1 [Example 68, N-(1-(2-(3-Chloro-5-(pyrrolidin-1-yl)benzyl)-2,8-diazaspiro[4.5]decane-8-carbonyl)-1H-pyrazol-3-yl)methanesulfonamide]",> 75,0 to 25,> 75,0 to 25,–,–,–,–
"CS(=O)(=O)Nc1ccn(C(=O)N2CCC(Oc3ccc(C(F)(F)F)c(N4CCC(F)CC4)c3)CC2)n1 [Example 109, N-(1-(4-(3-(4-Fluoropiperidin-1-yl)-4-(trifluoromethyl)phenoxy)piperidine-1-carbonyl)-1H-pyrazol-3-yl)methanesulfonamide]",> 75,0 to 25,> 75,0 to 25,–,–,–,–
"CS(=O)(=O)Nc1ccn(C(=O)N2CCC3(CCCN3Cc3ccc(C(F)(F)F)cc3NCCCC(=O)O)CC2)n1 [Example 1, 4-((2-((8-(3-(methylsulfonamido)-1H-pyrazole-1-carbonyl)-1,8-diazaspiro[4.5]decan-1-yl)methyl)-5-(trifluoromethyl)phenyl)amino)butanoic acid]",0 to 25,0 to 25,–,0 to 25,–,–,–,> 75
"CC(=O)Nc1ccn(C(=O)N2CCC(C)(N(C)Cc3ccc(C(N)=O)c(C(F)(F)F)c3)CC2)n1 [Example 130, 4-(((1-(3-Acetamido-1H-pyrazole-1-carbonyl)-4-methylpiperidin-4-yl)(methyl)amino)methyl)-2-(trifluoromethyl)benzamide]",> 75,0 to 25,> 75,0 to 25,–,–,–,–
"CC(=O)Nc1ccn(C(=O)N2CCN(Cc3cccc(OC(F)(F)F)c3)CC2)n1 [Example 128, N-(1-(4-(3-(Trifluoromethoxy)benzyl)piperazine-1-carbonyl)-1H-pyrazol-3-yl)acetamide]",> 75,0 to 25,> 75,0 to 25,–,–,–,–
"CS(=O)(=O)Nc1ccn(C(=O)N2CCC3(CCN(Cc4ccc(N5CCCC5)c(C(F)(F)F)c4)C3)CC2)n1 [Example 72, N-(1-(2-(4-(Pyrrolidin-1-yl)-3-(trifluoromethyl)benzyl)-2,8-diazaspiro[4.5]decane-8-carbonyl)-1H-pyrazol-3-yl)methanesulfonamide]",25 to 50,50 to 75,> 75,0 to 25,–,–,–,–

# Continued, values first:
inhibition at 1 µM [1] [%],inhibition at 1 µM [2] [%],inhibition at 1 µM [3] [%],inhibition at 1 µM [4] [%],"inhibition at 50 µM ([3]; 50 μM, read-out: MAGL % inh. (human) @ 50 μM) [%]",IC50 [3] [µM],IC50 [4] [µM],"inhibition at 10 µM ([3]; 10 μM, read-out: MAGL % inh. (human) @ 10 μM) [%]",Structure (SMILES)
> 75,0 to 25,> 75,0 to 25,–,–,–,–,"CC(=O)Nc1ccn(C(=O)N2CC3CN(Cc4ccc(Cl)c(C5(O)CCCC5)c4)CC3C2)n1 (stereo not shown) [Example 24, N-(1-(5-(4-Chloro-3-(1-hydroxycyclopentyl)benzyl)octahydropyrrolo[3,4-c]pyrrole-2-carbonyl)-1H-pyrazol-3-yl)acetamide]"
0 to 25,0 to 25,–,0 to 25,25 to 50,–,–,–,"CS(=O)(=O)Nc1ccn(C(=O)N2CC3CN(Cc4ccc(N5CCCC5)cc4C(F)(F)F)CC3C2)n1 (stereo not shown) [Example 47, N-(1-(5-(4-(Pyrrolidin-1-yl)-2-(trifluoromethyl)benzyl)octahydropyrrolo[3,4-c]pyrrole-2-carbonyl)-1H-pyrazol-3-yl)methanesulfonamide]"
25 to 50,> 75,> 75,25 to 50,–,–,–,–,"CS(=O)(=O)Nc1ccn(C(=O)N2CC3CN(Cc4cccc(C(F)(F)F)c4)CC3C2)n1 (stereo not shown) [Example 114, N-(1-(5-(3-(Trifluoromethyl)benzyl)octahydropyrrolo[3,4-c]pyrrole-2-carbonyl)-1H-pyrazol-3-yl)methanesulfonamide]"
> 75,25 to 50,> 75,25 to 50,–,–,–,–,"CC(=O)Nc1ccn(C(=O)N2CC3CN(Cc4cc(Cl)cc(C(C)(C)O)c4)CC3C2)n1 (stereo not shown) [Example 16, N-(1-(5-(3-chloro-5-(2-hydroxypropan-2-yl)benzyl)octahydropyrrolo[3,4-c]pyrrole-2-carbonyl)-1H-pyrazol-3-yl)acetamide]"
> 75,> 75,> 75,25 to 50,–,–,–,–,"CC(=O)Nc1ccn(C(=O)N2CC3CN(Cc4cc(Cl)cc(N5CCOCC5)c4)CC3C2)n1 (stereo not shown) [Example 167, N-(1-(5-(3-Chloro-5-morpholinobenzyl)octahydropyrrolo[3,4-c]pyrrole-2-carbonyl)-1H-pyrazol-3-yl)acetamide]"
25 to 50,> 75,25 to 50,50 to 75,–,–,–,–,"CS(=O)(=O)Nc1ccn(C(=O)N2CC3CN(Cc4ccc(Oc5ccc(Cl)cc5)cc4)CC3C2)n1 (stereo not shown) [Example 40, N-(1-(5-(4-(4-Chlorophenoxy)benzyl)octahydropyrrolo[3,4-c]pyrrole-2-carbonyl)-1H-pyrazol-3-yl)methanesulfonamide]"
> 75,0 to 25,> 75,0 to 25,–,–,–,–,"CC(=O)Nc1ccn(C(=O)N2CCN(Cc3ccc(Cl)cc3OCC(=O)O)CC2)n1 [Example 3, 2-(2-((4-(3-acetamido-1H-pyrazole-1-carbonyl)piperazin-1-yl)methyl)-5-chlorophenoxy)acetic acid]"
